Values quoted from earlier work, collected in patent US20250144071A1, “METHOD FOR PRODUCING ELLAGIC ACID-CONTAINING COMPOSITION AND ELLAGIC ACID-CONTAINING COMPOSITION” (SUMITOMO CHEMICAL COMPANY, LIMITED, priority 2022, published 2025).

SMILES: O=c1oc2c(O)c(O)cc3c(=O)oc4c(O)c(O)cc1c4c23 [ellagic acid]
- Solubility of ellagic acid in water: about 20 μg/mL
